We go through 65 sequences from the supplement of paper PMC11208160.
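Further: IS621 bridge recombinase in Escherichia coli cells against a fixed T5 target plasmid.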

The nature of the data set: recombinant UMI read abundance after kanamycin selection (control-corrected) (log10(CPM+1)); higher = more efficient recombination; extreme values may be limits of the assay; sequences stand for … in AGTGCAGAGAAAATCGGCCAGTTTTCTCTGCCTGCAGTCCGCATGCCGTGGGACCCCTTGGGTTCTAACCTGTTGCCTAGATTTATGCAGCGGACTGCCTTTCTCCCAAAGTGATAAACCGG…AGGTTGGTTTCACT; site = the 11-nt donor. The method, then: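 Pooled E. coli donor-specificity screen for the IS621 bridge recombinase. Each library member carries a reprogrammed 11-nt donor and a full-length LE bridge RNA expressed in cis from the natural promoter, with a paired donor-binding loop (8-nt LDG + 4-nt RDG) and a target-binding loop fixed to T5. It is co-electroporated with a T5 target plasmid; recombinase is induced with 0.07 mM IPTG and recombinants are selected on kanamycin. UMIs are counted as CPM, averaged over two biological replicates and corrected by the unselected control. Molecule = full bridge RNA written as DNA, built from the T5 scaffold: LDG = donor specificity nt 1-8, RDG = reverse complement of nt 8-11.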
Consider “AAAAAGGCATGGACCGGTTTTCCCGGTAATCCGTATTTGCT (site AAAAAGGCTAG)”, for which the “recombinant UMI read abundance (log10)” value stood at 1.88.
In the case of “AAAAAGGCATGGACCGGTTTTCCCGGTAATCCGTATTTGCT (site ACAAAGGCTAG)”, the “recombinant UMI read abundance (log10)” value was 1.19.
As to “AAAAAGGCATGGACCGGTTTTCCCGGTAATCCGTATTTGCT (site AGAAAGGCTAG)”, the “recombinant UMI read abundance (log10)” value worked out at 0.722.
In the case of “AAAAAGGCATGGACCGGTTTTCCCGGTAATCCGTATTTGCT (site ATAAAGGCTAG)”, the “recombinant UMI read abundance (log10)” value stood at 1.59.
“AAAACCACATGGACCGGTTTTCCCGGTAATCCGTATTTGCT (site AAAACCACTAG)”: the “recombinant UMI read abundance (log10)” value was determined as 1.82.
Then “AAAATATCATGGACCGGTTTTCCCGGTAATCCGTATTTGCA (site AAAATATCTTG)”, with 2.21.
As for “AAAATATCATGGACCGGTTTTCCCGGTAATCCGTATTTGCA (site ACAGTATCTTG)”, the “recombinant UMI read abundance (log10)” value turned out to be 1.88.
“AAACGCACATGGACCGGTTTTCCCGGTAATCCGTATTTGGG (site AAACGCACTCC)”: the “recombinant UMI read abundance (log10)” value was determined as 0.0145.
For “AAACGGGCATGGACCGGTTTTCCCGGTAATCCGTATTTGCG (site AAACGGGCTCG)” the value was 0.661; for “AAACTGTCATGGACCGGTTTTCCCGGTAATCCGTATTTGCC (site AAACTGTCTGG)”, 1.79.
As for “AAACTGTCATGGACCGGTTTTCCCGGTAATCCGTATTTGTT (site AAACTGTCTAA)”, the “recombinant UMI read abundance (log10)” value came out at 1.97.
For “AAACTTGCATGGACCGGTTTTCCCGGTAATCCGTATTTGGA (site AAACTTGCTTC)” the value was 0.688.
For the sequence “AAAGATCCATGGACCGGTTTTCCCGGTAATCCGTATTTGGC (site AAAGATCCTGC)”, the “recombinant UMI read abundance (log10)” value is 0.
Regarding “AAAGCCCCATGGACCGGTTTTCCCGGTAATCCGTATTTGAA (site AAAGCCCCTTT)”, the “recombinant UMI read abundance (log10)” value came to 0.767.
For “AAAGCCTCATGGACCGGTTTTCCCGGTAATCCGTATTTGAA (site AAAGCCTCTTT)”, the “recombinant UMI read abundance (log10)” value is 2.63.
For “AAAGCTCCATGGACCGGTTTTCCCGGTAATCCGTATTTGTA (site AAAGCTCCTTA)”, the “recombinant UMI read abundance (log10)” value turned out to be 1.42.
As for “AAAGGCACATGGACCGGTTTTCCCGGTAATCCGTATTTGAA (site AAAGGCACTTT)”, the “recombinant UMI read abundance (log10)” value was found to be 0.56.
For “AAAGGGACATGGACCGGTTTTCCCGGTAATCCGTATTTGAG (site AAAGGGACTCT)”, the “recombinant UMI read abundance (log10)” value was 1.76.
Turning to “AAAGGGCCATGGACCGGTTTTCCCGGTAATCCGTATTTGAG (site AAAGGGCCTCT)”, the “recombinant UMI read abundance (log10)” value was 0.0224.
Turning to “AAAGTAGCATGGACCGGTTTTCCCGGTAATCCGTATTTGCT (site AAAGTAGCTAG)”, the “recombinant UMI read abundance (log10)” value was 1.94.
With “AAAGTCACATGGACCGGTTTTCCCGGTAATCCGTATTTGGG (site AAAGTCACTCC)”, the “recombinant UMI read abundance (log10)” value was 0.0214.
For “AAAGTCACATGGACCGGTTTTCCCGGTAATCCGTATTTGGG (site CAAGTCACTCC)” the value was 0.458.
As to “AAAGTCACATGGACCGGTTTTCCCGGTAATCCGTATTTGGG (site GAAGTCACTCC)”, the “recombinant UMI read abundance (log10)” value was 0.00503.
On to “AAAGTCACATGGACCGGTTTTCCCGGTAATCCGTATTTGGG (site TAAGTCACTCC)”, for which the “recombinant UMI read abundance (log10)” value was 0.158.
“AAATACACATGGACCGGTTTTCCCGGTAATCCGTATTTGCT (site AAATACACTAG)”: the “recombinant UMI read abundance (log10)” value was found to be 2.41.
As to “AAATATGCATGGACCGGTTTTCCCGGTAATCCGTATTTGGA (site AAATATGCTTC)”, the “recombinant UMI read abundance (log10)” value is 1.25.
On to “AAATATGCATGGACCGGTTTTCCCGGTAATCCGTATTTGGA (site AACTATGCTTC)”, for which the “recombinant UMI read abundance (log10)” value worked out at 1.
As for “AAATATGCATGGACCGGTTTTCCCGGTAATCCGTATTTGGA (site AAGTATGCTTC)”, the “recombinant UMI read abundance (log10)” value came to 1.23.
On to “AAATATGCATGGACCGGTTTTCCCGGTAATCCGTATTTGGA (site AATTATGCTTC)”, for which the “recombinant UMI read abundance (log10)” value amounted to 0.905.
For “AAATCGACATGGACCGGTTTTCCCGGTAATCCGTATTTGGT (site AAATCGACTAC)”, the “recombinant UMI read abundance (log10)” value came to 0.133.
With “AAATCGTCATGGACCGGTTTTCCCGGTAATCCGTATTTGTC (site AAATCGTCTGA)”, the “recombinant UMI read abundance (log10)” value worked out at 1.91.
In the case of “AAATGAGCATGGACCGGTTTTCCCGGTAATCCGTATTTGGG (site AAATGAGCTCC)”, the “recombinant UMI read abundance (log10)” value is 0.252.
For “AAATGAGCATGGACCGGTTTTCCCGGTAATCCGTATTTGGG (site CAATGAGCTCC)” the value was 0.247.
On to “AAATGAGCATGGACCGGTTTTCCCGGTAATCCGTATTTGGG (site GAATGAGCTCC)”, for which the “recombinant UMI read abundance (log10)” value amounted to 0.00588.
Then “AAATGAGCATGGACCGGTTTTCCCGGTAATCCGTATTTGGG (site TAATGAGCTCC)”, with 0.46; and “AAATGATCATGGACCGGTTTTCCCGGTAATCCGTATTTGAG (site AAATGATCTCT)”, with 2.71.
Regarding “AAATGCACATGGACCGGTTTTCCCGGTAATCCGTATTTGGG (site AAATGCACTCC)”, the “recombinant UMI read abundance (log10)” value is 0.0107.
Then “AAATGCTCATGGACCGGTTTTCCCGGTAATCCGTATTTGAA (site AAATGCTCTTT)”, with 1.66.
“AAATGCTCATGGACCGGTTTTCCCGGTAATCCGTATTTGAA (site CAATGCTCTTT)”: the “recombinant UMI read abundance (log10)” value was found to be 1.65.
On to “AAATGCTCATGGACCGGTTTTCCCGGTAATCCGTATTTGAA (site GAATGCTCTTT)”, for which the “recombinant UMI read abundance (log10)” value was found to be 0.961.
On to “AAATGCTCATGGACCGGTTTTCCCGGTAATCCGTATTTGAA (site TAATGCTCTTT)”, for which the “recombinant UMI read abundance (log10)” value turned out to be 1.17.
Then “AAATGGCCATGGACCGGTTTTCCCGGTAATCCGTATTTGCA (site AAATGGCCTTG)”, with 0.00935; and “AAATGGCCATGGACCGGTTTTCCCGGTAATCCGTATTTGCA (site CAATGGCCTTG)”, with 0.
As to “AAATGGCCATGGACCGGTTTTCCCGGTAATCCGTATTTGCA (site GAATGGCCTTG)”, the “recombinant UMI read abundance (log10)” value is 0.
Regarding “AAATGGCCATGGACCGGTTTTCCCGGTAATCCGTATTTGCA (site TAATGGCCTTG)”, the “recombinant UMI read abundance (log10)” value was determined as 0.
For the sequence “AAATTTGCATGGACCGGTTTTCCCGGTAATCCGTATTTGGC (site AAATTTGCTGC)”, the “recombinant UMI read abundance (log10)” value stood at 0.
For “AACAAACCATGGACCGGTTTTCCCGGTAATCCGTATTTGGT (site AACAAACCTAC)”, the “recombinant UMI read abundance (log10)” value was determined as 0.
Consider “AACAAACCATGGACCGGTTTTCCCGGTAATCCGTATTTGGT (site CACAAACCTAC)”, for which the “recombinant UMI read abundance (log10)” value was determined as 0.
On to “AACAAACCATGGACCGGTTTTCCCGGTAATCCGTATTTGGT (site GACAAACCTAC)”, for which the “recombinant UMI read abundance (log10)” value stood at 0.
As for “AACAAACCATGGACCGGTTTTCCCGGTAATCCGTATTTGGT (site TACAAACCTAC)”, the “recombinant UMI read abundance (log10)” value was 0.337.
For the sequence “AACACCCCATGGACCGGTTTTCCCGGTAATCCGTATTTGAG (site AACACCCCTCT)”, the “recombinant UMI read abundance (log10)” value worked out at 0.0941.
Turning to “AACACTGCATGGACCGGTTTTCCCGGTAATCCGTATTTGAG (site AACACTGCTCT)”, the “recombinant UMI read abundance (log10)” value came to 1.31.
Take “AACATACCATGGACCGGTTTTCCCGGTAATCCGTATTTGGA (site AACATACCTTC)”: the “recombinant UMI read abundance (log10)” value stood at 0.0114.
For “AACCACTCATGGACCGGTTTTCCCGGTAATCCGTATTTGCC (site AACCACTCTGG)”, the “recombinant UMI read abundance (log10)” value was 3.01.
Regarding “AACCATCCATGGACCGGTTTTCCCGGTAATCCGTATTTGCC (site AACCATCCTGG)”, the “recombinant UMI read abundance (log10)” value worked out at 0.00555.
“AACCCGGCATGGACCGGTTTTCCCGGTAATCCGTATTTGGA (site AACCCGGCTTC)”: the “recombinant UMI read abundance (log10)” value turned out to be 0.181.
For “AACCCTCCATGGACCGGTTTTCCCGGTAATCCGTATTTGAT (site AACCATCCTAT)” the value was 0.00728; for “AACCCTCCATGGACCGGTTTTCCCGGTAATCCGTATTTGAT (site AACCCTCCTAT)”, 0.115.
Regarding “AACCCTCCATGGACCGGTTTTCCCGGTAATCCGTATTTGAT (site AACCGTCCTAT)”, the “recombinant UMI read abundance (log10)” value was determined as 0.015.
With “AACCCTCCATGGACCGGTTTTCCCGGTAATCCGTATTTGAT (site AACCTTCCTAT)”, the “recombinant UMI read abundance (log10)” value is 0.011.
“AACCGCCCATGGACCGGTTTTCCCGGTAATCCGTATTTGAA (site AACCGCCCTTT)”: the “recombinant UMI read abundance (log10)” value came out at 0.156.
For the sequence “AACCGTCCATGGACCGGTTTTCCCGGTAATCCGTATTTGTT (site AACCGTCCTAA)”, the “recombinant UMI read abundance (log10)” value was found to be 0.00892.
Then “AACCGTCCATGGACCGGTTTTCCCGGTAATCCGTATTTGTT (site AACCGTCCTAC)”, with 0.0168; and “AACCGTCCATGGACCGGTTTTCCCGGTAATCCGTATTTGTT (site AACCGTCCTAG)”, with 0.794.
Then “AACCGTCCATGGACCGGTTTTCCCGGTAATCCGTATTTGTT (site AACCGTCCTAT)”, with 0.0199.
